These are literature values, as cited in patent EP4691460A1, “RAMELTEON SUBLINGUAL FILM AND PREPARATION METHOD THEREFOR” (Hangzhou Chengbang Pharmaceutical Technology Co., Ltd, priority 2023, dated 2024).

Data set [1] deals with MT1 receptors (Homo sapiens, UniProt P48039). Conditions: fraction of the affinity of ramelteon.
The target in data set [2] is T1, MT2 receptors (Homo sapiens, UniProt P49286).
T1 sequence (P49286 1-362): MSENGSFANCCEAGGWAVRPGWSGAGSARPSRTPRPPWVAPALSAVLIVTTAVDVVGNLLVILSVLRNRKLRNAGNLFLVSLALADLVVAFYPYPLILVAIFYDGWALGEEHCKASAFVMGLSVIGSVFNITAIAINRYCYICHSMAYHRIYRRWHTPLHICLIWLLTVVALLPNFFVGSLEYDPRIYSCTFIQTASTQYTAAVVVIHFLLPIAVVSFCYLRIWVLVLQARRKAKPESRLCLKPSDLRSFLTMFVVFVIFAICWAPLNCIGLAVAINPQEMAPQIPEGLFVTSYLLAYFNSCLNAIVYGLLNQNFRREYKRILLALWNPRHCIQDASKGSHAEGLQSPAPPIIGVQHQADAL
The following applies: fraction of the affinity of ramelteon.

Where [3] appears, read: oral administration, clinical data.
The mark [4] stands for this setting: taken with a high-fat meal versus fasting.

MT1 receptors, sequence (P48039 whole entry): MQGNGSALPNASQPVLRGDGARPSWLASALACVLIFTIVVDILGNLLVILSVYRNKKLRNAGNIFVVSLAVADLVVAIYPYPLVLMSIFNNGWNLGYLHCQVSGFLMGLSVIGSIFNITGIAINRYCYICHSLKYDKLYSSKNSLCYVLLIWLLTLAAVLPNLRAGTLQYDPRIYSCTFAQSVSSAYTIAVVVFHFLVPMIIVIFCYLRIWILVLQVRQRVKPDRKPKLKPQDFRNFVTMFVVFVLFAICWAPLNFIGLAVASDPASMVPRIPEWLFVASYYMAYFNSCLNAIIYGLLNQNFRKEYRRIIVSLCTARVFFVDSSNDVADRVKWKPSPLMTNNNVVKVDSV

For the compound `CC(O)C(=O)NCC[C@@H]1CCc2ccc3c(c21)CCO3` (stereo partly drawn) [M-II], under “main metabolite versus ramelteon”, the “total amount relative to the metabolic substrate” value is 20-100 times. In data set [1], the “affinity with MT1 receptors relative to the metabolic substrate” value is reported as “about one fifth”. Moreover, the “affinity with MT2 receptors relative to the metabolic substrate” value in data set [2] was “one tenth”.
In the case of `CCC(=O)NCC[C@@H]1CCc2ccc3c(c21)CCO3` [ramelteon, Ramelteon], under setting [3], the “drug absorbed after oral administration” value is recorded as “At least 84%” and the “median time to peak drug concentration” value is on record as “approximately 0.75 (0.5-1.5) h”. In addition, the absolute bioavailability (oral administration, first pass effect) is 1.4%. Besides, the “AUC higher than that of fasting administration” value (taken with a high-fat meal) is 31%. Under setting [4], the Cmax reduction was 22% and the “median Tmax delay” value is 45 min.
